± gives the standard deviation of the averaged measurements.
Key:
[1] = system: Homo sapiens (human subject panel, olfactory perception); assay: perceived odor pleasantness rating (rating 0-100); higher = more pleasant
Description: (§1)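 Human olfactory psychophysics. 55 healthy subjects (after excluding 6 low performers) sniffed 1 mL of each odorant diluted in paraffin oil (vials, two dilutions per molecule, 20 molecules presented twice). Each subject rated intensity, pleasantness and familiarity on a 0-100 slider, starting at 50 and required to move. Ratings were given only when the subject reported detecting a smell; per-subject ratings are averaged over subjects.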

[2] = system: Homo sapiens (human subject panel, olfactory perception); assay: perceived odor familiarity rating (rating 0-100); higher = more familiar
Description: as §1

[3] = system: Homo sapiens (human subject panel, olfactory perception); assay: perceived odor intensity rating (rating 0-100); higher = stronger perceived smell
Description: as §1

[4] = odor dilution in paraffin oil: 1/10
[5] = odor dilution in paraffin oil: 1/1,000
[6] = odor dilution in paraffin oil: 1/100,000

Compound: CCCCCCCCCC(C)=O [2-Undecanone]
- perceived odor pleasantness rating [1, 4]: 43.3 ± 32
- perceived odor pleasantness rating [1, 5]: 50.4 ± 22
- perceived odor familiarity rating [2, 4]: 49.5 ± 32
- perceived odor familiarity rating [2, 5]: 39.6 ± 30
- perceived odor intensity rating [3, 4]: 79.4 ± 22
- perceived odor intensity rating [3, 5]: 31.9 ± 28

Compound: CC(=O)c1ccccn1 [2-acetyl pyridine]
- perceived odor pleasantness rating [1, 5]: 49.7 ± 28
- perceived odor pleasantness rating [1, 6]: 53.6 ± 27
- perceived odor familiarity rating [2, 5]: 66.9 ± 28
- perceived odor familiarity rating [2, 6]: 67.8 ± 29
- perceived odor intensity rating [3, 5]: 79.2 ± 20
- perceived odor intensity rating [3, 6]: 74.3 ± 22

Compound: CCC(C)=O [2-butanone]
- perceived odor pleasantness rating [1, 5]: 43.3 ± 28
- perceived odor pleasantness rating [1, 6]: 49.6 ± 29
- perceived odor familiarity rating [2, 5]: 34.9 ± 32
- perceived odor familiarity rating [2, 6]: 27.4 ± 31
- perceived odor intensity rating [3, 5]: 33 ± 33
- perceived odor intensity rating [3, 6]: 19.4 ± 26

Compound: CCCCCCCCC(C)=O [2-decanone]
- perceived odor pleasantness rating [1, 5]: 49.5 ± 25
- perceived odor pleasantness rating [1, 6]: 51.2 ± 26
- perceived odor familiarity rating [2, 5]: 44 ± 29
- perceived odor familiarity rating [2, 6]: 30.3 ± 23
- perceived odor intensity rating [3, 5]: 44.8 ± 30
- perceived odor intensity rating [3, 6]: 24.6 ± 26

Compound: CCc1cnccn1 [2-ethyl pyrazine]
- perceived odor pleasantness rating [1, 5]: 37.2 ± 30
- perceived odor pleasantness rating [1, 6]: 47 ± 21
- perceived odor familiarity rating [2, 5]: 55.8 ± 34
- perceived odor familiarity rating [2, 6]: 34.8 ± 27
- perceived odor intensity rating [3, 5]: 80 ± 19
- perceived odor intensity rating [3, 6]: 31.4 ± 25

Compound: CCCCC(CC)CO (configuration not stated) [2-ethyl-1-hexanol]
- perceived odor pleasantness rating [1, 5]: 19.4 ± 22
- perceived odor pleasantness rating [1, 6]: 25.9 ± 23
- perceived odor familiarity rating [2, 5]: 42.1 ± 30
- perceived odor familiarity rating [2, 6]: 43.6 ± 31
- perceived odor intensity rating [3, 5]: 79.7 ± 19
- perceived odor intensity rating [3, 6]: 51.2 ± 34

Compound: CCCCC(CC)COC(C)=O (configuration not stated) [2-ethylhexyl acetate]
- perceived odor pleasantness rating [1, 5]: 42 ± 22
- perceived odor pleasantness rating [1, 6]: 51.3 ± 22
- perceived odor familiarity rating [2, 5]: 38.6 ± 29
- perceived odor familiarity rating [2, 6]: 32.7 ± 29
- perceived odor intensity rating [3, 5]: 44.4 ± 32
- perceived odor intensity rating [3, 6]: 24.6 ± 31

Compound: CCc1ccccc1O [2-ethylphenol]
- perceived odor pleasantness rating [1, 5]: 29.2 ± 27
- perceived odor pleasantness rating [1, 6]: 33.2 ± 24
- perceived odor familiarity rating [2, 5]: 64.4 ± 28
- perceived odor familiarity rating [2, 6]: 51.6 ± 33
- perceived odor intensity rating [3, 5]: 83.3 ± 18
- perceived odor intensity rating [3, 6]: 67.7 ± 27

Compound: CCCCCC(C)=O [2-heptanone]
- perceived odor pleasantness rating [1, 5]: 53.8 ± 25
- perceived odor pleasantness rating [1, 6]: 51.9 ± 26
- perceived odor familiarity rating [2, 5]: 52.7 ± 29
- perceived odor familiarity rating [2, 6]: 23.9 ± 22
- perceived odor intensity rating [3, 5]: 71.1 ± 22
- perceived odor intensity rating [3, 6]: 25.4 ± 27

Compound: CCCCC(C)O (configuration not stated) [2-hexanol]
- perceived odor pleasantness rating [1, 5]: 42.3 ± 24
- perceived odor pleasantness rating [1, 6]: 42.1 ± 25
- perceived odor familiarity rating [2, 5]: 58.2 ± 28
- perceived odor familiarity rating [2, 6]: 38.1 ± 29
- perceived odor intensity rating [3, 5]: 71.9 ± 24
- perceived odor intensity rating [3, 6]: 47.8 ± 32

Compound: CCCCC(C)=O [2-hexanone]
- perceived odor pleasantness rating [1, 5]: 42.2 ± 24
- perceived odor pleasantness rating [1, 6]: 48.6 ± 23
- perceived odor familiarity rating [2, 5]: 57.6 ± 32
- perceived odor familiarity rating [2, 6]: 31.4 ± 27
- perceived odor intensity rating [3, 5]: 71.4 ± 25
- perceived odor intensity rating [3, 6]: 25.5 ± 31

Compound: CCC/C=C/C=O [2-hexenal]
- perceived odor pleasantness rating [1, 5]: 30.9 ± 26
- perceived odor pleasantness rating [1, 6]: 53.1 ± 26
- perceived odor familiarity rating [2, 5]: 41.1 ± 33
- perceived odor familiarity rating [2, 6]: 43.1 ± 31
- perceived odor intensity rating [3, 5]: 67.4 ± 28
- perceived odor intensity rating [3, 6]: 39.7 ± 29

Compound: COc1nccnc1CC(C)C [2-isobutyl-3-methoxypyrazine]
- perceived odor pleasantness rating [1, 5]: 31.2 ± 25
- perceived odor pleasantness rating [1, 6]: 47.9 ± 26
- perceived odor familiarity rating [2, 5]: 50.1 ± 31
- perceived odor familiarity rating [2, 6]: 57.7 ± 30
- perceived odor intensity rating [3, 5]: 80.6 ± 19
- perceived odor intensity rating [3, 6]: 71.7 ± 27

Compound: CC(C)CO [2-methyl-1-propanol]
- perceived odor pleasantness rating [1, 5]: 37.4 ± 23
- perceived odor pleasantness rating [1, 6]: 43.5 ± 21
- perceived odor familiarity rating [2, 5]: 38.5 ± 34
- perceived odor familiarity rating [2, 6]: 35.4 ± 28
- perceived odor intensity rating [3, 5]: 42.5 ± 33
- perceived odor intensity rating [3, 6]: 23.4 ± 23

Compound: CCCCCCC(C)=O [2-octanone]
- perceived odor pleasantness rating [1, 5]: 52.5 ± 25
- perceived odor pleasantness rating [1, 6]: 52.2 ± 16
- perceived odor familiarity rating [2, 5]: 51.9 ± 26
- perceived odor familiarity rating [2, 6]: 36.6 ± 25
- perceived odor intensity rating [3, 5]: 66.8 ± 26
- perceived odor intensity rating [3, 6]: 20 ± 26

Compound: CCCC(C)O (configuration not stated) [2-pentanol]
- perceived odor pleasantness rating [1, 5]: 35.5 ± 26
- perceived odor pleasantness rating [1, 6]: 42.6 ± 21
- perceived odor familiarity rating [2, 5]: 41.8 ± 30
- perceived odor familiarity rating [2, 6]: 38.9 ± 31
- perceived odor intensity rating [3, 5]: 50.2 ± 34
- perceived odor intensity rating [3, 6]: 25.7 ± 23

Compound: OCCc1ccccc1 [2-phenylethanol]
- perceived odor pleasantness rating [1, 5]: 52.8 ± 30
- perceived odor pleasantness rating [1, 6]: 63.1 ± 24
- perceived odor familiarity rating [2, 5]: 61.9 ± 30
- perceived odor familiarity rating [2, 6]: 61.8 ± 29
- perceived odor intensity rating [3, 5]: 70 ± 26
- perceived odor intensity rating [3, 6]: 59.6 ± 29

From the supplement of paper PMC4977894
